From ChEMBL document CHEMBL1153537, “Structure-activity relationship and molecular mechanisms of ethyl 2-amino-4-(2-ethoxy-2-oxoethyl)-6-phenyl-4h-chromene-3-carboxylate (sha 14-1) and its analogues” (J Med Chem, 2009)
Values after ≈ are worked out from the molar mass of the structure shown. Active and inactive are the calls of the source. The rule behind the calls is not given here.

How the values were obtained:
[1] = system: NALM-6; assay: Induction of apoptosis in human NALM6 cells assessed as caspase 3/7 activation at 0.4 to 100 uM after 24 hrs by fluorescence assay; type: functional, cell-based
[2] = system: NCI-H460; assay: Cytotoxicity against human H460 cells after 48 hrs by cell titer-blue assay; type: functional, cell-based; conditions: NCI-H460, 48 h
[3] = Cytotoxicity against mouse Hepa-1c1c7 cells after 48 hrs by cell titer-blue assay; type: functional, cell-based; conditions: Hepa-1c1c7, 48 h
[4] = Cytotoxicity against human SU-8686 cells after 48 hrs by cell titer-blue assay; type: functional, cell-based; conditions: SU.86.86, 48 h
[5] = system: REH; assay: Cytotoxicity against human REH cells after 48 hrs by cell titer-blue assay; type: functional, cell-based
[6] = system: NALM-6; assay: Cytotoxicity against human NALM6 cells after 48 hrs by cell titer-blue assay; type: functional, cell-based
[7] = system: HCT-116; assay: Cytotoxicity against human HCT116 cells after 48 hrs by cell titer-blue assay; type: functional, cell-based; conditions: HCT-116, 48 h
[8] = system: NALM-6; assay: Induction of apoptosis in human NALM6 cells assessed as PARP cleavage at 50 uM after 24 hrs; type: functional, cell-based
[9] = system: DU-145; assay: Cytotoxicity against human DU145 cells after 48 hrs by cell titer-blue assay; type: functional, cell-based; conditions: DU-145, 48 h
[10] = target: Bcl-2-like protein 1 (Homo sapiens, UniProt Q07817); assay: Inhibition of recombinant His6-tagged Bcl-XL expressed in Escherichia coli BL21 (DE3) and Flu-Bak peptide interaction by fluorescence polarization assay
Bcl-2-like protein 1, sequence (Q07817 whole entry): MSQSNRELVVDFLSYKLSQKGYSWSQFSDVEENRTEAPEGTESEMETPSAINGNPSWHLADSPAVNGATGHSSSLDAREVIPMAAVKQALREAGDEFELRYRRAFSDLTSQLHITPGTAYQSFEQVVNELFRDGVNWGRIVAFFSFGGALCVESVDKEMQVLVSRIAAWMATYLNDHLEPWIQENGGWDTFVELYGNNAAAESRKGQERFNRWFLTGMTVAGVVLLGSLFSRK

[11] = system: MCF7; assay: Cytotoxicity against human MCF7 cells after 48 hrs by cell titer-blue assay; type: functional, cell-based; conditions: MCF7, 48 h
[12] = system: Jurkat; assay: Cytotoxicity against human Jurkat cells after 48 hrs by cell titer-blue assay; type: functional, cell-based
[13] = system: CCRF-CEM; assay: Cytotoxicity against human CCRF-CEM cells after 48 hrs by cell titer-blue assay; type: functional, cell-based
[14] = Cytotoxicity against human HL60/MX2 cells after 48 hrs by cell titer-blue assay; type: functional, cell-based; conditions: HL60/MX2, 48 h
[15] = Cytotoxicity against human CCRF-CEM/C2 cells after 48 hrs by cell titer-blue assay; type: functional, cell-based
[16] = system: HL-60; assay: Cytotoxicity against human HL60 cells after 48 hrs by cell titer-blue assay; type: functional, cell-based; conditions: HL-60, 48 h
[17] = system: CCRF-CEM; assay: Ratio of GI50 for human CCRF-CEM/C2 cells to GI50 for human CCRF-CEM cells; type: functional
[18] = target: Induced myeloid leukemia cell differentiation protein Mcl-1 (Homo sapiens, UniProt Q07820); assay: Inhibition of recombinant His6-tagged MCL1 (171-326) expressed in Escherichia coli BL21 (DE3) and Flu-Bak peptide interaction by fluorescence polarization assay
Induced myeloid leukemia cell differentiation protein Mcl-1, sequence (Q07820 whole entry): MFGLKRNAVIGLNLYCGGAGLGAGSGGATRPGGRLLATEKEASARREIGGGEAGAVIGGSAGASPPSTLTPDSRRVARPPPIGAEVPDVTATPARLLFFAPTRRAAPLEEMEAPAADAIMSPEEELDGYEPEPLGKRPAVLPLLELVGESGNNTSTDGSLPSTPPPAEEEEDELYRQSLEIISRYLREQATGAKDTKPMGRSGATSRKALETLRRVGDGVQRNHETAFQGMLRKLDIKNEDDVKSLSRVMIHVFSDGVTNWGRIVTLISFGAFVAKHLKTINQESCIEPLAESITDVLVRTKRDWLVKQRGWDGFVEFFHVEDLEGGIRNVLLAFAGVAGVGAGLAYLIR

[19] = system: NALM-6; assay: Induction of apoptosis in human NALM6 cells assessed as PARP cleavage at 3.125 to 25 uM after 24 hrs; type: functional, cell-based
[20] = system: HL-60; assay: Ratio of GI50 for human HL60/MX2 cells to GI50 for human HL60 cells; type: functional
[21] = Homo sapiens, REH, 48 h, read-out: IC50
[22] = Homo sapiens, NALM-6, 48 h, read-out: IC50

CCOC(=O)CC1C(C(=O)OCC)=C(N)Oc2ccc(-c3ccccc3)cc21 (centres undefined)
Activity [1]: Dose-dependent effect | IC50 [2]: 15.5 µM | IC50 [3]: 22.8 µM | IC50 [4]: 18.7 µM | IC50 [5, 21]: 20.2 µM | IC50 [6, 22]: 44.2 µM | IC50 [7]: 18.5 µM | Activity [8]: inactive | IC50 [9]: 14.7 µM | Ki [10]: 344 µM | IC50 [11]: 18.9 µM

CCOC(=O)CC1C(C(=O)OCC)=C(N)Oc2ccc(-c3cccc4ccccc34)cc21 (centres undefined)
IC50 [12]: 5.83 µM

COc1cccc2c1C(=O)c1c(O)c3c(c(O)c1C2=O)C[C@@](O)(C(=O)CO)C[C@@H]3O[C@H]1C[C@H](N)[C@H](O)[C@H](C)O1 [DOXORUBICIN]
EC50 [13]: 0.465 µM | EC50 [14]: 8.05 µM | EC50 [15]: 3.08 µM | EC50 [16]: 1.51 µM

CCOC(=O)CC1C(C(=O)OCC)=C(N)Oc2ccccc21 (centres undefined)
IC50 [12]: 91.4 µM

CCOC(=O)CC1C(C#N)=C(N)Oc2ccc(-c3ccccc3)cc21 (centres undefined)
IC50 [12]: 52.5 µM

CCOC(=O)CC1C(C(=O)OCC)=C(N)Oc2ccc(-c3cc(OC)c(OC)c(OC)c3)cc21 (centres undefined)
IC50 [12]: 13.6 µM

Nc1nc2[nH]cnc2c(=S)[nH]1 [THIOGUANINE]
EC50 [13]: 0.87 µM | EC50 [14]: 3.65 µM | EC50 [15]: 0.942 µM | EC50 [16]: 3.9 µM

CC[C@@]1(O)C(=O)OCc2c1cc1n(c2=O)Cc2cc3ccccc3nc2-1 [CAMPTOTHECIN]
GI50 [15]: 0.0432 µM | RatioGI50 [17]: 1879

CCOC(=O)CC1C(C(=O)OCC)=C(N)Oc2ccc(-c3cc(OC)cc(OC)c3)cc21 (centres undefined)
Ki [18]: 42000 µM | Activity [1]: Dose-dependent effect | IC50 [2]: 5.14 µM | IC50 [12]: 1.2 µM | IC50 [3]: 10.9 µM | IC50 [4]: 7.03 µM | IC50 [5, 21]: 4.16 µM | IC50 [6, 22]: 4.74 µM | IC50 [7]: 8.83 µM | Activity [19]: Dose-dependent effect | IC50 [9]: 11.5 µM | Ki [10]: 1240 µM | IC50 [11]: 15.5 µM

CCOC(=O)CC1C(C(=O)OCC)=C(N)Oc2ccc(Br)cc21 (centres undefined)
IC50 [12]: 57.3 µM

CN(C)CC[C@H](CSc1ccccc1)Nc1ccc(S(=O)(=O)NC(=O)c2ccc(N3CCN(Cc4ccccc4-c4ccc(Cl)cc4)CC3)cc2)cc1[N+](=O)[O-] [ABT 737]
IC50 [2]: 8.03 µM | IC50 [12]: 1.38 µM | IC50 [3]: 8.68 µM | IC50 [4]: 4.24 µM | IC50 ([5]; reh): Not Active | IC50 ([6]; nalm-6): Not Active | IC50 [7]: 4.06 µM | IC50 [9]: 27.6 µM | IC50 [11]: 21.3 µM

CCOC(=O)CC1C(C(=O)OCC)=C(N)Oc2ccc(-c3ccc4ccccc4c3)cc21 (centres undefined)
IC50 [12]: 18.7 µM

CCOC(=O)CC1C(C(=O)OCC)=C(N)Oc2ccc(-c3ccc(C(C)(C)C)cc3)cc21 (centres undefined)
IC50 [12]: 35.5 µM

CCCc1ccc2c(c1)C(CC(=O)OCC)C(C(=O)OCC)=C(N)O2 (centres undefined)
IC50 [12]: 57.3 µM

Cc1cc2c(C(C)C)c(O)c(O)c(C=O)c2c(O)c1-c1c(C)cc2c(C(C)C)c(O)c(O)c(C=O)c2c1O [GOSSYPOL]
Ki [18]: 6.54 µM

CCOC(=O)CC1C(C(=O)OCC)=C(N)Oc2cc(-c3ccccc3)ccc21 (centres undefined)
IC50 [12]: 51.6 µM

CCOC(=O)CC1C(C(=O)OCC)=C(NC(C)=O)Oc2ccc(-c3ccccc3)cc21 (centres undefined)
IC50 [12]: 67.7 µM

CCOC(=O)CC1C(C(=O)OCC)=C(N)Oc2ccc(-c3cc(O)cc(O)c3)cc21 (centres undefined)
IC50 [12]: 18.3 µM

CCOC(=O)C1=C(N)Oc2ccc(-c3ccccc3)cc2C1CC(=O)N1CCOCC1 (centres undefined)
IC50 [12]: > 100 µM

CCOC(=O)CC1C(C(=O)OCC)=C(N)Oc2ccc(-c3cc(O)cc(OC)c3)cc21 (centres undefined)
IC50 [12]: 4.2 µM

CCOC(=O)C1=C(N)Oc2ccc(-c3ccccc3)cc2C1CC(=O)N1CCCCC1 (centres undefined)
IC50 [12]: 58.5 µM

CCOC(=O)CC1C(C(=O)OCC)=C(N)Oc2cccc(-c3ccccc3)c21 (centres undefined)
IC50 [12]: 44.3 µM

Nc1ccn([C@@H]2O[C@H](CO)[C@@H](O)[C@@H]2O)c(=O)n1 [CYTARABINE]
EC50 [13]: 0.00561 µM | EC50 [14]: 0.261 µM | EC50 [15]: 0.0228 µM | EC50 [16]: 0.657 µM

CC(C)OC(=O)CC1C(C(=O)OC(C)C)=C(N)Oc2ccc(-c3ccccc3)cc21 (centres undefined)
IC50 [12]: 38.7 µM

CCOC(=O)CC1C(C(=O)OCC)=C(N(C(C)=O)C(C)=O)Oc2ccc(-c3ccccc3)cc21 (centres undefined)
IC50 [12]: 70.6 µM

O=C1c2c(O)ccc(O)c2C(=O)c2c(NCCNCCO)ccc(NCCNCCO)c21 [MITOXANTRONE]
GI50 [14]: 4.42 µg/mL (≈ 9.94 µM) | GI50 [16]: 0.192 µg/mL (≈ 0.432 µM) | RatioGI50 [20]: 23

CCOC(=O)C1=C(N)Oc2ccc(-c3ccccc3)cc2C1CC(=O)N1CCNCC1 (centres undefined)
IC50 [12]: 53.7 µM

CC[C@]1(O)C[C@H]2CN(CCc3c([nH]c4ccccc34)[C@@](C(=O)OC)(c3cc4c(cc3OC)N(C=O)[C@H]3[C@@](O)(C(=O)OC)[C@H](OC(C)=O)[C@]5(CC)C=CCN6CC[C@]43[C@@H]65)C2)C1 [VINCRISTINE]
EC50 [13]: 0.597 µM | EC50 [14]: 0.0609 µM | EC50 [15]: 0.367 µM

CCOC(=O)C1=C(N)Oc2ccc(-c3ccccc3)cc2C1CC(=O)N(CC)CC (centres undefined)
IC50 [12]: 49.6 µM

CCOC(=O)CC1C(C(=O)OCC)=C(N)Oc2c(-c3ccccc3)cccc21 (centres undefined)
IC50 [12]: 49.8 µM
